{"source": "patent US20230173071A1", "about": "“TREATMENT OF MYOPIA AND OTHER OCULAR CONDITIONS USING SINGLET OXYGEN GENERATED FROM DYES ACTIVATED BY NEAR-INFRARED LIGHT” (California Institute of Technology, priority 2018, published 2023)", "key": {"[1]": {"tested_on": "porcine sclera", "experiment": "Young's Modulus measurement (Instron) of irradiated porcine sclera strips", "design": "species or system porcine (pig)", "settings": "porcine sclera strips soaked in 2 mg/mL ICG, 0.01% BAC in D2O; 810 nm LED 200 mW, total 10 minutes", "procedure": "All Young's Modulus values were determined using an Instron equipped with screw side action tensile grips and a load cell rated for max 100 N. Rates of pulling were between 3 mm/minute and 5 mm/minute. The software calculated the Young's Modulus from the force vs. distance/time.\nThe treatment was also tested on a more biologically relevant sample—unscalded porcine (pig) eyes (Sierra For Medical Science). Eyes were cut around the globe to make a 1 cm×5-6 cm strip of pig sclera for testing. Measurements were accumulated over several batches of eyes. Storage solutions before treatment (irradiation) contained 20% Dextran (MW ˜40-45k) in D2O while post-treatment storage was Dulbecco's buffer with 20% Dextran (MW ˜40-45k). An ICG/BAC/D2O soak solution was made to the concentration of 2 mg/mL ICG and 0.01% BAC. Strips for treatment were soaked in the solution for 0.5-2 hours. Irradiation was carried out similarly to the bovine gelatin strips—810 nm LED, 200 mW, and a 1 cm×1 cm irradiation zone. To ensure sufficient irradiation without sample dehydration, irradiation duration was kept at 5 minutes but performed twice—i.e. the sample was moved down 1 cm every 5 minutes and then the process was repeated—in order to give a total of 10 minutes of irradiation. […] The Young's Modulus values were calculated by the software and compiled to compare untreated vs. treated strips. […]"}, "[2]": {"experiment": "Singlet oxygen sensor green (SOSG) fluorescence measurements", "type": "physicochemical", "settings": "for SOSG fluorescence emission at 525 nm: dye 0.1 mg/mL, 810 nm, 200 mW, 488 nm excitation", "procedure": "Singlet oxygen sensor green (SOSG) is a common reagent for measuring singlet oxygen generation in aqueous systems. The marker becomes more fluorescent as singlet oxygen is generated. All time measurements were done in triplicate (100 μL aliquots from an irradiated sample). A Molecular Devices Flexstation was used to read out the fluorescence measurements with the excitation/emission at 488/525 nm.\nSOSG fluorescence turn on was initially measured using riboflavin as a point of comparison for the efficacy of ICG irradiations. Measurements used a dye concentration of 0.1 mg/mL and the irradiation the parameters (3 mW at 365 nm) used in the FDA approved procedure for keratoconus (corneal expansion). The mixture was stirred during irradiation.\nStocks of the ICG formulations (both H2O and D2O) were made to be 1 mg/mL ICG and 0.01% benzalkonium chloride (BAC). These were diluted to a dye concentration of 0.1 mg/mL for the SOSG tests with no adjustments for the BAC. The sample was irradiated with 810 nm light at 200 mW and stirred throughout the irradiation."}, "[3]": {"experiment": "Singlet oxygen generation by DPBF decay (UV-Vis), 810 nm LED", "type": "physicochemical", "text": "To evaluate the efficiency of singlet oxygen generation by ICG and an analog (IR-820) in vitro, the singlet oxygen generation was monitored. 1,3-diphenylisobenzofuran (DPBF), a compound that decays in the presence of singlet oxygen, and singlet oxygen sensor green (SOSG), a dye that increases fluorescence in the presence of singlet oxygen, were used as markers to indicate singlet oxygen generation by ICG and IR-820. […] For SOSG analysis, the fluorescence turn-on in H2O and D2O was compared to that observed when riboflavin—an FDA approved dye used in conjunction with UV light to treat keratoconus (corneal expansion)—was usedIn all cases, an increase in fluorescence emission at 525 nm was observed (using a 488nm excitation)."}}}
{"smiles": "CC1(C)C(/C=C/C=C/C=C/C=C2\\N(CCCCS(=O)(=O)O)c3ccc4ccccc4c3C2(C)C)=[N+](CCCCS(=O)(=O)[O-])c2ccc3ccccc3c21", "note": "[ICG, indocyanine green]", "values": [{"measurement": "increase of the Young's Modulus, irradiated (treated) vs non-irradiated (untreated) sample", "setting": "[1]", "value": 21, "unit": "%"}, {"measurement": "SOSG fluorescence emission at 525 nm", "setting": "[2]; D2O", "value": "large increase in fluorescence activation"}, {"measurement": "SOSG fluorescence emission at 525 nm", "setting": "[2]; H2O", "value": "increase"}, {"measurement": "singlet oxygen generation (SOSG turn-on) relative to riboflavin", "setting": "[2]; only in the presence of D2O", "value": "efficient enough to compete with the turn-on observed in the presence of riboflavin"}, {"measurement": "ICG and DPBF signal (UV-Vis) upon irradiation", "setting": "[3]; 810 nm, 375 mW LED, in water", "value": "decrease"}, {"measurement": "singlet oxygen generation (DPBF analysis)", "setting": "[3]; in H2O or D2O", "value": "singlet oxygen generation was observed"}]}
